Data from PMC4467398, “Preclinical antitumor activity of ST7612AA1: a new oral thiol-based histone deacetylase (HDAC) inhibitor” (Oncotarget, 2014).

Tested on: DOHH2 and TMD8 DLBCL cells
Assay: Gene expression profiling (HumanHT-12 v4 BeadChip, limma), ST7612AA1 300 nM 8 hrs vs DMSO
Assay type: cell-based, human
Details: 300 nM 8 hrs

## CC(=O)SCCCCC[C@H](NC(=O)[C@H]1CCC(=O)N1)C(=O)Nc1ccccc1 [ST7612AA1]
  AveExpr.ST7612 NOSIP (probe ILMN_1759436): 7.06E-01
  AveExpr.ST7612 NPC2 (probe ILMN_1716678): 8.44E-01
  AveExpr.ST7612 NPL (probe ILMN_1782070): 7.76E-01
  AveExpr.ST7612 NPL (probe ILMN_2149494): 8.88E-01
  AveExpr.ST7612 NQO2 (probe ILMN_1712918): 8.69E-01
  AveExpr.ST7612 NUB1 (probe ILMN_1665291): 7.20E-01
  AveExpr.ST7612 NUMB (probe ILMN_2331266): 7.27E-01
  AveExpr.ST7612 NXF1 (probe ILMN_1705783): 8.80E-01
  AveExpr.ST7612 NXF1 (probe ILMN_2358652): 7.18E-01
  AveExpr.ST7612 P704P (probe ILMN_1793950): 6.85E-01
  AveExpr.ST7612 PAQR8 (probe ILMN_1694589): 7.20E-01
  AveExpr.ST7612 PCYOX1 (probe ILMN_1679725): 7.89E-01
  AveExpr.ST7612 PDXK (probe ILMN_1672504): 8.94E-01
  AveExpr.ST7612 PECI (probe ILMN_2384536): 8.25E-01
  AveExpr.ST7612 PEX16 (probe ILMN_1745655): 7.84E-01
  AveExpr.ST7612 PIM2 (probe ILMN_1748283): 7.43E-01
  AveExpr.ST7612 PKIA (probe ILMN_2337974): 7.37E-01
  AveExpr.ST7612 PLD3 (probe ILMN_1666976): 8.81E-01
  AveExpr.ST7612 PMAIP1 (probe ILMN_2098446): 8.50E-01
  AveExpr.ST7612 PNKD (probe ILMN_1774604): 7.25E-01
  AveExpr.ST7612 PRDX2 (probe ILMN_1767766): 8.35E-01
  AveExpr.ST7612 PRDX2 (probe ILMN_2382829): 7.41E-01
  AveExpr.ST7612 PTGER4 (probe ILMN_1795930): 9.03E-01
  AveExpr.ST7612 PTTG1 (probe ILMN_1753196): 6.92E-01
  AveExpr.ST7612 RAB8B (probe ILMN_2173004): 8.71E-01
  AveExpr.ST7612 RAB24 (probe ILMN_2379718): 7.77E-01
  AveExpr.ST7612 RABGAP1 (probe ILMN_2061950): 6.86E-01
  AveExpr.ST7612 RAPGEF2 (probe ILMN_3247261): 8.54E-01
  AveExpr.ST7612 RASAL1 (probe ILMN_1793517): 7.10E-01
  AveExpr.ST7612 RASD2 (probe ILMN_2170209): 7.75E-01
  AveExpr.ST7612 REEP2 (probe ILMN_1666057): 6.85E-01
  AveExpr.ST7612 RFC1 (probe ILMN_2217935): 7.23E-01
  AveExpr.ST7612 RHBDD2 (probe ILMN_1809437): 7.80E-01
  AveExpr.ST7612 RHBDD2 (probe ILMN_2406410): 8.04E-01
  AveExpr.ST7612 RHOBTB3 (probe ILMN_1744949): 8.25E-01
  AveExpr.ST7612 RHOC (probe ILMN_1673305): 9.02E-01
  AveExpr.ST7612 RNASE4 (probe ILMN_1776602): 7.33E-01
  AveExpr.ST7612 RND2 (probe ILMN_1736533): 7.06E-01
  AveExpr.ST7612 RNF24 (probe ILMN_1717809): 7.24E-01
  AveExpr.ST7612 RTN2 (probe ILMN_1749115): 8.60E-01
  AveExpr.ST7612 RTN3 (probe ILMN_2363065): 7.08E-01
  AveExpr.ST7612 SBK1 (probe ILMN_1728298): 8.80E-01
  AveExpr.ST7612 SCARNA11 (probe ILMN_3236010): 6.95E-01
  AveExpr.ST7612 SCARNA13 (probe ILMN_3235325): 7.18E-01
  AveExpr.ST7612 SCARNA14 (probe ILMN_3247636): 7.31E-01
  AveExpr.ST7612 SDCBP (probe ILMN_2363586): 8.86E-01
  AveExpr.ST7612 SDCBP (probe ILMN_2363591): 8.22E-01
  AveExpr.ST7612 SDHAP2 (probe ILMN_3248781): 7.07E-01
  AveExpr.ST7612 SEMA4D (probe ILMN_1687533): 7.86E-01
  AveExpr.ST7612 SEMA4F (probe ILMN_1805007): 7.51E-01
  AveExpr.ST7612 SERPINB9 (probe ILMN_1742052): 7.55E-01
  AveExpr.ST7612 SERPINI1 (probe ILMN_1814333): 7.79E-01
  AveExpr.ST7612 SGK (probe ILMN_1702487): 8.82E-01
  AveExpr.ST7612 SH3GLB2 (probe ILMN_2158336): 6.85E-01
  AveExpr.ST7612 SLC23A2 (probe ILMN_1746578): 7.82E-01
  AveExpr.ST7612 SLC25A4 (probe ILMN_1681670): 8.53E-01
  AveExpr.ST7612 SLC25A4 (probe ILMN_2211780): 7.98E-01
  AveExpr.ST7612 SLC25A23 (probe ILMN_1679949): 7.04E-01
  AveExpr.ST7612 SLC44A2 (probe ILMN_1771987): 7.92E-01
  AveExpr.ST7612 SLC45A3 (probe ILMN_1726114): 7.11E-01
  AveExpr.ST7612 SLFN11 (probe ILMN_1752520): 7.62E-01
  AveExpr.ST7612 SNAP23 (probe ILMN_1687519): 8.74E-01
  AveExpr.ST7612 SNORD31 (probe ILMN_2072391): 7.85E-01
  AveExpr.ST7612 SORT1 (probe ILMN_1707077): 8.42E-01
  AveExpr.ST7612 SPAG9 (probe ILMN_2263718): 7.33E-01
  AveExpr.ST7612 SPINT2 (probe ILMN_1800739): 8.11E-01
  AveExpr.ST7612 SREBF1 (probe ILMN_1663035): 7.22E-01
  AveExpr.ST7612 SRGN (probe ILMN_1760347): 7.62E-01
  AveExpr.ST7612 SRGN (probe ILMN_2169152): 7.60E-01
  AveExpr.ST7612 STARD10 (probe ILMN_1717052): 8.01E-01
  AveExpr.ST7612 STK17B (probe ILMN_1798543): 7.91E-01
  AveExpr.ST7612 STMN3 (probe ILMN_3244117): 9.01E-01
  AveExpr.ST7612 STX3 (probe ILMN_1659544): 8.71E-01
  AveExpr.ST7612 SUSD3 (probe ILMN_1785570): 8.58E-01
  AveExpr.ST7612 TACC1 (probe ILMN_1770084): 7.64E-01
